Publication PMC10861534, “Poly-γ-glutamylation of biomolecules” (Nature Communications, 2024)

Experiments:
hFPGS = target: T1, hFPGS (Homo sapiens, UniProt Q05932); assay: LC-MS of reaction products; assay type: biochemical; conditions: 5 mM analogue, 0.5 mM folate, 5 mM ATP, 10 mM MgCl2, pH 8.5, 37 °C; chain terminator
T1 construct: gene FPGS; ORF in pFastBacHTa, N-terminal His6-tag, Sf9 insect cells
T1 sequence (Q05932 43-587): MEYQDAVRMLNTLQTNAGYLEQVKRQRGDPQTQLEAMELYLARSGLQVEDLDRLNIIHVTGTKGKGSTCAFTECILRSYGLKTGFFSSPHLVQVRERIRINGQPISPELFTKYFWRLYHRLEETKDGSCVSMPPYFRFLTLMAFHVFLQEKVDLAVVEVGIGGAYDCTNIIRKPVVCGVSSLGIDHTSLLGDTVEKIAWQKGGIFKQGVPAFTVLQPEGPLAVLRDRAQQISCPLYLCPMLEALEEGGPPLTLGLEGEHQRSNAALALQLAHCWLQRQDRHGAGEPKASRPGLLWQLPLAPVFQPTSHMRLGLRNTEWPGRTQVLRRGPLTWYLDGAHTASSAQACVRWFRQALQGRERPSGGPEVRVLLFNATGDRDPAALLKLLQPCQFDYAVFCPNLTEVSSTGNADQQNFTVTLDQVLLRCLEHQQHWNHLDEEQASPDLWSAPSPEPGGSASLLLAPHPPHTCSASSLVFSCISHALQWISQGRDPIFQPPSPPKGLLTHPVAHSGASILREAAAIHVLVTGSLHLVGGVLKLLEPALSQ

Af-CofE = target: T2, Af-CofE (Archaeoglobus fulgidus, UniProt O28028); assay: LC-MS of reaction products; assay type: biochemical; conditions: 2 mM analogue, 50 uM F420-1, 2 mM GTP, 2 mM MgCl2/MnCl2, pH 8.5, 37 °C; chain terminator
T2 construct: codon-optimized ORF in pProEX-HTb, E. coli BL21(DE3) LOBSTR; N-terminal His6-tag removed by rTEV; co-purified flavins washed off with urea/KBr; homodimer
T2 sequence (O28028 whole entry): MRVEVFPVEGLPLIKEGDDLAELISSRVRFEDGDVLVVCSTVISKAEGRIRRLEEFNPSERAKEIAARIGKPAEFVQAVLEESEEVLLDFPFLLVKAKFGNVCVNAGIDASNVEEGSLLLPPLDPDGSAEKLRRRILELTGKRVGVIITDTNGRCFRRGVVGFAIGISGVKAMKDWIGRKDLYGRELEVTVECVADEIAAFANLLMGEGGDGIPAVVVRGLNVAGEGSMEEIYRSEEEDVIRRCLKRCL

Mtb-FPGS = target: T3, Mtb-FPGS (Mycobacterium tuberculosis, UniProt I6Y0R5)
T3 construct: gene folC
T3 sequence (I6Y0R5 whole entry): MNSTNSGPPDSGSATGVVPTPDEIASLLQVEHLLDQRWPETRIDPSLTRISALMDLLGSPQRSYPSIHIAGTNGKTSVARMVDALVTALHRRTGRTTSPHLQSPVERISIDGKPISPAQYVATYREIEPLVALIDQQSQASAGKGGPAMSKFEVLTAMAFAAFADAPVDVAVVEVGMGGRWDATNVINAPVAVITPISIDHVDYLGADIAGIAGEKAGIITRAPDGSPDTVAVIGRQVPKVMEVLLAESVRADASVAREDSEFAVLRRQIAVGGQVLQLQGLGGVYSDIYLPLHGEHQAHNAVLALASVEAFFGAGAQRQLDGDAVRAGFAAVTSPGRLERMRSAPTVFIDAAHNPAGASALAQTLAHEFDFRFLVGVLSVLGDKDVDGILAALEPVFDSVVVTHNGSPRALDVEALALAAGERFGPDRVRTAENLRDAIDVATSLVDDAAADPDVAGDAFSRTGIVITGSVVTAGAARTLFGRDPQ

Mtb-FbiB = Mtb-FbiB (Mycobacterium tuberculosis, UniProt P9WP79)
Mtb-FbiB, sequence (P9WP79 whole entry): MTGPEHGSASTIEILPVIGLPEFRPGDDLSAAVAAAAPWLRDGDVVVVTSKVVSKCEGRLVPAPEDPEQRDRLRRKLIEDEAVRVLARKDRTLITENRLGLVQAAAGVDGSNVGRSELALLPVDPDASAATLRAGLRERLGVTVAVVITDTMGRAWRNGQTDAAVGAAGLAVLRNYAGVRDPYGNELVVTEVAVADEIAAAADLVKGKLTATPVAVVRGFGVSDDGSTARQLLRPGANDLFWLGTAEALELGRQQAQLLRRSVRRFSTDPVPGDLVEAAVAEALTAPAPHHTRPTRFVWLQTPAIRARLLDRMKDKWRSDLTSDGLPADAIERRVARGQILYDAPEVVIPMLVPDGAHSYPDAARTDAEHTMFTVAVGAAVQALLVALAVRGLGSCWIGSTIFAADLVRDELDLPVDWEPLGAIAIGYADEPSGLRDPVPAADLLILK

Tm-DHFR = target: T4, Tm-DHFR (Thermotoga maritima, UniProt Q60034); assay: 1H NMR of reaction; assay type: biochemical; conditions: 1 mM folate-2, 2 mM NADPH, pH 7.0, 37 °C; reduced to tetrahydrofolate-2
T4 construct: gene folA; synthesized ORF in pProEX-HTb, E. coli BL21(DE3) LOBSTR; TALON and SEC
T4 sequence (Q60034 1-169): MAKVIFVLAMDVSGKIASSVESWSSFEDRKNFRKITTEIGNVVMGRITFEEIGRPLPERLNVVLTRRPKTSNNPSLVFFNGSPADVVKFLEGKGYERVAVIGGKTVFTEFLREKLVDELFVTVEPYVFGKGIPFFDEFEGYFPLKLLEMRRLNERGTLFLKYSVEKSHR

SMILES	LC-MS of reaction products (hFPGS)	LC-MS of reaction products (Af-CofE)	LC-MS of reaction products (Mtb-FPGS)	LC-MS of reaction products (Mtb-FbiB)	1H NMR of reaction (Tm-DHFR)
N[C@@H](CC[N+](=O)[O-])C(=O)O [4-nitro-L-2-aminobutyric acid, (2S)-2-Amino-4-nitrobutanoic acid]	acts as a substrate across all enzymes and both cofactors	acts as a substrate across all enzymes and both cofactors	acts as a substrate across all enzymes and both cofactors	acts as a substrate across all enzymes and both cofactors	
Nc1nc2ncc(CNc3ccc(C(=O)N[C@@H](CCC(=O)N[C@@H](CCC(=O)O)C(=O)O)C(=O)O)cc3)nc2c(=O)[nH]1 [folate-2, pteroyldi-γ-L-glutamic acid]			addition of only a single L-glutamate molecule to afford folate-3 as the major product		pre-incubation with Tm-DHFR initiated the production of tetrahydrofolate-2
